Literature values as cited in EP4752146A1, “NOVEL CA[…] CARRIER-DRUG CONJUGATE COMPRISING SAME” (priority 2023, dated 2025).

Test system: cancer cells
Details: background

Structure (SMILES)	activity in cancer cells relative to SN-38 (higher than SN-38)	IC50 (various cell lines)
CC[C@@]1(O)C(=O)OCc2c1cc1n(c2=O)Cc2c-1nc1cc(F)c(C)c3c1c2[C@@H](NC(=O)CO)CC3 [DXd]	approximately 10 fold	–
CCc1c2c(nc3ccc(O)cc13)-c1cc3c(c(=O)n1C2)COC(=O)[C@]3(O)CC [SN-38]	–	nanomolar range
